# Results published in patent publication US20240228488A1 (TAKEDA PHARMACEUTICAL COMPANY LIMITED, priority 2021, published 2024).
# pEC50: −log10 of the molar value.
# What was measured:
# plasma kallikrein = biological target: T1, plasma kallikrein (Homo sapiens, UniProt P03952); assay: Neat human plasma assay, FXIIa contact pathway-activated, PFR-AMC substrate; assay type: biochemical; conditions: citrated human plasma 78% final, 10 nM human FXIIa, 100 μM PFR-AMC; read-out: Human Plasma Assay: IC90
# T1 construct: from tissue
# T1 sequence (P03952 391-638 limits assumed): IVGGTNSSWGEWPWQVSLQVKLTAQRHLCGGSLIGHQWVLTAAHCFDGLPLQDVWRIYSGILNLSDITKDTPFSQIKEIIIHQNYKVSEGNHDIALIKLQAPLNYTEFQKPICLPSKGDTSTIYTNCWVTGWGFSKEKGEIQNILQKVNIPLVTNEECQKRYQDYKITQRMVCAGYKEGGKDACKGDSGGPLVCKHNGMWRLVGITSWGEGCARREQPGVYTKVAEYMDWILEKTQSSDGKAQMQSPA
# T1 sequence (P03952 20-390 partner limits assumed): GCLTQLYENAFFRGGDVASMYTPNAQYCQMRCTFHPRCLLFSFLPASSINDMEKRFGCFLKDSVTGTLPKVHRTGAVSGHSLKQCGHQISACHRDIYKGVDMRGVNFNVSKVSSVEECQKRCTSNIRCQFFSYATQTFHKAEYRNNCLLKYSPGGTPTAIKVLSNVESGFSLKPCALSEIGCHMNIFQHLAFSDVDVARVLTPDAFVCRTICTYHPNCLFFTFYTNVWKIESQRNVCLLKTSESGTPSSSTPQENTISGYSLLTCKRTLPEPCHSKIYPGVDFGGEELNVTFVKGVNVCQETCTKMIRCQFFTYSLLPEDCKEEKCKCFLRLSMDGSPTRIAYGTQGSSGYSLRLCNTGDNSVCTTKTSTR
# In short: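 Citrated human plasma (78% final) with compound, contact-activated by 10 nM human FXIIa in pKal buffer pH 7.5, with 100 μM PFR-AMC. Fluorescence (360/480 nm) followed 5 min at room temperature; rates versus concentration fitted by 4-parameter equation for IC50/IC90.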
# [1] = biological target: human activated kallikrein enzyme (Homo sapiens, UniProt P03952); assay: Plasma kallikrein inhibition, fluorogenic PFR-AMC substrate, 500 pM activated kallikrein format; assay type: biochemical; conditions: 500 pM activated kallikrein, 300 uM PFR-AMC, 30 min preincubation, 10 min reaction; read-out: Primary Dose Response Assay: Average EC50
# Chain of human activated kallikrein enzyme (P03952 391-638 limits assumed): as the sequence (P03952 391-638 limits assumed) above
# Chain of human activated kallikrein enzyme (P03952 20-390 partner limits assumed): as the sequence (P03952 20-390 partner limits assumed) above
# In short: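 500 pM enz + cpd, 30 min RT preinc; start w/ PFR-AMC 300 uM; 10 min RT; Ex380/Em460. Buffer: Tris 20 mM pH 7.5, EDTA 1 mM, NaCl 150 mM, PEG-400 0.1%, Triton 0.1%. EC50.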
Structure (SMILES),IC90 (plasma kallikrein),pEC50 [1]
"CN1CCN(c2cc(C3CC3)cn3cc(CNc4ccnc(NC(=O)[C@H]5C[C@@H]5c5cccc(Cl)c5)n4)nc23)CC1 [Example 88, (1S,2S)-2-(3-chlorophenyl)-N-(4-(((6-cyclopropyl-8-(4-methylpiperazin-1-yl)imidazo[1,2-a]pyridin-2-yl)methyl)amino)pyrimidin-2-yl)cyclopropane-1-carboxamide]",400 to 1500 nM,> 9.00
"Cc1ccnc([C@H]2C[C@@H]2C(=O)Nc2cc(NCc3cn4cc(C5CC5)cc(N5CC(=O)N(CCO)C5=O)c4n3)ncn2)n1 [Example 464, (1S,2S)-N-(6-(((6-cyclopropyl-8-(3-(2-hydroxyethyl)-2,4-dioxoimidazolidin-1-yl)imidazo[1,2-a]pyridin-2-yl)methyl)amino)pyrimidin-4-yl)-2-(4-methylpyrimidin-2-yl)cyclopropane-1-carboxamide]",< 400 nM,> 9.00
"O=C(Nc1cc(NCc2cn3cc(C4CC4)cc(N4CCNCC4)c3n2)ccn1)[C@H]1C[C@@H]1c1cccc(Cl)c1 [Example 132, (1S,2S)-2-(3-chlorophenyl)-N-(4-(((6-cyclopropyl-8-(piperazin-1-yl)imidazo[1,2-a]pyridin-2-yl)methyl)amino)pyridin-2-yl)cyclopropane-1-carboxamide]",400 to 1500 nM,> 9.00
"CN1CCN(c2cc(C3CC3)cn3cc(CNc4ccnc(NC(=O)[C@@H]5C[C@H]5c5cc(Cl)ccc5C#N)c4)nc23)CC1 (racemic) [Example 143, rac-(1S*,2S*)-2-(5-chloro-2-cyanophenyl)-N-(4-(((6-cyclopropyl-8-(4-methylpiperazin-1-yl)imidazo[1,2-a]pyridin-2-yl)methyl)amino)pyridin-2-yl)cyclopropane-1-carboxamide]",400 to 1500 nM,> 9.00
"O=C(Nc1nc(O)nc(NCc2cn3cc(C4CC4)ccc3n2)n1)[C@H]1C[C@@H]1c1cccc(Cl)c1 [Example 295, (1S,2S)-2-(3-chlorophenyl)-N-(4-(((6-cyclopropylimidazo[1,2-a]pyridin-2-yl)methyl)amino)-6-hydroxy-1,3,5-triazin-2-yl)cyclopropane-1-carboxamide]",1500 to 10000 nM,> 9.00
"O=C(Nc1cc(NCc2cn3cc(C4CC4)cc(C4CNC4)c3n2)ccn1)[C@H]1C[C@@H]1c1cccc(Cl)c1 [Example 284, (1S,2S)—N-(4-(((8-(azetidin-3-yl)-6-cyclopropylimidazo[1,2-a]pyridin-2-yl)methyl)amino)pyridin-2-yl)-2-(3-chlorophenyl)cyclopropane-1-carboxamide]",< 400 nM,> 9.00
"O=C(Nc1cc(NCc2cn3cc(C4CC4)cc(C(=O)N4CCOCC4)c3n2)ncn1)[C@H]1C[C@@H]1c1cccc(Cl)c1 [Example 300, (1S,2S)-2-(3-chlorophenyl)-N-(6-(((6-cyclopropyl-8-(morpholine-4-carbonyl)imidazo[1,2-a]pyridin-2-yl)methyl)amino)pyrimidin-4-yl)cyclopropane-1-carboxamide]",1500 to 10000 nM,> 9.00
"NCc1cc(C2CC2)cn2cc(CNc3ccnc(NC(=O)[C@H]4C[C@@H]4c4cccc(Cl)c4)c3)nc12 (racemic) [Example 120, rac-(1S*,2S*)—N-(4-(((8-(aminomethyl)-6-cyclopropylimidazo[1,2-a]pyridin-2-yl)methyl)amino)pyridin-2-yl)-2-(3-chlorophenyl)cyclopropane-1-carboxamide]",10000 to 48000 nM,> 9.00
"Cc1nc(NC(=O)[C@H]2C[C@@H]2c2ncc(F)c(C)n2)cc(N[C@H](C)c2cn3cc(C4CC4)cc(N4CC(=O)N(C)C4=O)c3n2)n1 (relative stereo) [Example 491, rac-(-(1S*,2S*)-N-(6-(((R)-1-(6-cyclopropyl-8-(3-methyl-2,4-dioxoimidazolidin-1-yl)imidazo[1,2-a]pyridin-2-yl)ethyl)amino)-2-methylpyrimidin-4-yl)-2-(5-fluoro-4-methylpyrimidin-2-yl)cyclopropane-1-carboxamide]",400 to 1500 nM,> 9.00
"Cc1ccnc([C@H]2C[C@@H]2C(=O)Nc2nc(C)nc(OCc3cn4cc(C5CC5)cc(N5CC(=O)N(C)C5=O)c4n3)n2)n1 [Example 573, (1S,2S)—N-(4-((6-cyclopropyl-8-(3-methyl-2,4-dioxoimidazolidin-1-yl)imidazo[1,2-a]pyridin-2-yl)methoxy)-6-methyl-1,3,5-triazin-2-yl)-2-(4-methylpyrimidin-2-yl)cyclopropane-1-carboxamide]",400 to 1500 nM,> 9.00
"Cc1ccnc([C@H]2C[C@@H]2C(=O)Nc2cc(OCc3cn4cc(C5CC5)cc(N5CC(=O)N(CC(C)(C)O)C5=O)c4n3)nc(C)n2)n1 [Example 562, (1S,2S)—N-(6-((6-cyclopropyl-8-(3-(2-hydroxy-2-methylpropyl)-2,4-dioxoimidazolidin-1-yl)imidazo[1,2-a]pyridin-2-yl)methoxy)-2-methylpyrimidin-4-yl)-2-(4-methylpyrimidin-2-yl)cyclopropane-1-carboxamide]",400 to 1500 nM,> 9.00
"Cc1ccnc([C@H]2C[C@@H]2C(=O)Nc2cc(N3C[C@@H](O)C[C@@H]3c3cn4cc(C5CC5)cc(N5CCOC5=O)c4n3)ncn2)n1 (relative stereo) [Example 471, rac-(1S*,2S*)-N-(6-((2R,4S)-2-(6-cyclopropyl-8-(2-oxooxazolidin-3-yl)imidazo[1,2-a]pyridin-2-yl)-4-hydroxypyrrolidin-1-yl)pyrimidin-4-yl)-2-(4-methylpyrimidin-2-yl)cyclopropane-1-carboxamide]",400 to 1500 nM,> 9.00

# Continued, values first:
IC90 (plasma kallikrein),pEC50 [1],Structure (SMILES)
1500 to 10000 nM,8.00 to 9.00,"CN1CCN(c2cc(C3CC3)cn3cc(CNc4cc(NC(=O)[C@H]5C[C@@H]5c5cccc(Cl)c5)ncn4)nc23)CC1=O [Example I-153, (1S,2S)-2-(3-chlorophenyl)-N-(6-(((6-cyclopropyl-8-(4-methyl-3-oxopiperazin-1-yl)imidazo[1,2-a]pyridin-2-yl)methyl)amino)pyrimidin-4-yl)cyclopropane-1-carboxamide]"
10000 to 48000 nM,8.00 to 9.00,"O=C(Nc1cc(NCc2cn3cc(C4CC4)ccc3n2)ncn1)[C@H]1C[C@@H]1c1cc(Cl)ccn1 (single isomer, unassigned) [Example I-267, rac-(1S*,2S*)-2-(4-chloropyridin-2-yl)-N-(6-(((6-cyclopropylimidazo[1,2-a]pyridin-2-yl)methyl)amino)pyrimidin-4-yl)cyclopropane-1-carboxamide]"
< 400 nM,> 9.00,"CN1CC(F)(c2cc(C3CC3)cn3cc(CNc4ccnc(NC(=O)[C@H]5C[C@@H]5c5cccc(Cl)c5)c4)nc23)C1 [Example I-227, (1S,2S)-2-(3-chlorophenyl)-N-(4-(((6-cyclopropyl-8-(3-fluoro-1-methylazetidin-3-yl)imidazo[1,2-a]pyridin-2-yl)methyl)amino)pyridin-2-yl)cyclopropane-1-carboxamide]"
400 to 1500 nM,> 9.00,"CS(=O)(=O)c1cc(C2CC2)cn2cc(CNc3ccnc(NC(=O)[C@H]4C[C@@H]4c4cccc(Cl)c4)c3)nc12 [Example I-235, (1S,2S)-2-(3-chlorophenyl)-N-(4-(((6-cyclopropyl-8-(methylsulfonyl)imidazo[1,2-a]pyridin-2-yl)methyl)amino)pyridin-2-yl)cyclopropane-1-carboxamide]"
